Measurements reported in patent publication US4598066A, “Antimycoplasmal agent for animals and method of use for prevention and treatment of mycoplasmosis” (Fujisawa Pharmaceutical Co., Ltd., priority 1982, dated 1986).

Tested on: Mycoplasma gallisepticum 1RF
Experiment: Test 5: Mycoplasma gallisepticum 1RF intranasal infection in chickens, Compound 1 and tylosin alone and combined
Type: in vivo, chicken
Conditions: single oral dose 100 mg/kg 1 hr after intranasal infection; 20 days after infection (group C)
Procedure: Mycoplasma: Mycoplasma gallisepticum 1RF supplied from the National Institute of Animal Health, Ibaraki prefecture, Japan was used.
Chickens used: Broiler males (Chunky), purchased as day-old chickens from a commercial flock free of Mycoplasma gallisepticum agglutinins, were maintained under isolation in an electrically heated battery brooder. When birds reached 7 to 8 days of age, they were used for test.
Infection of mycoplasma: Mycoplasma gallisepticum 1RF was cultured in PPLO liquid medium (Difco) for 3 to 4 days at 37° C. until the colour of broth changed from red to yellowish organge. An aliquot of the culture (10^7 -10^8 cfu/ml) was used for infection.
Intranasal infections were produced by dropping 0.05 ml of the culture into the nasal cavity of chickens.
Recovery of mycoplasma: Twenty to 21 days after infection, the chickens were killed and recovery of mycoplasma was examined from the trachea, air-sac, and tibia-metatarsus joints.
Recovered organisms were identified as Mycoplasma gallisepticum after examining glucose fermentation, colonies, and haemadsorption test.
Inhibition(%) of infection: Average recovery percentage of Mycoplasma gallisepticum from trachea, air-sac, and tibia-metatarsus joints was measured infected medicated, and infected non-medicated chickens.
Inhibition(%) was calculated as follows: [formula] […]

SMILES: CC[C@H]1OC(=O)C[C@@H](O)[C@H](C)[C@@H](O[C@@H]2O[C@H](C)[C@@H](O[C@H]3C[C@@](C)(O)[C@@H](O)[C@H](C)O3)[C@H](N(C)C)[C@H]2O)[C@@H](CC=O)C[C@@H](C)C(=O)/C=C/C(C)=C/[C@@H]1CO[C@@H]1O[C@H](C)[C@@H](O)[C@@H](OC)[C@H]1OC [Tylosin, tylosin]
- Inhibition (%) of infection: 17%
